Measured values taken from patent US12637423B2, “Aziridinyl functional compound” (priority 2020, dated 2026).

Key:
[1] = tested on: Bscl2-GFP mouse embryonic stem (mES) reporter cell line; assay: ToxTracker assay, Bscl2-GFP DNA damage reporter; type: cell-based
Description: (§1) This methodology uses a two step-approach.
(§2) Metabolic was evaluated by addition of S9 liver extract. […] Only GFP expression in intact single cells is determined.

[2] = tested on: Rtkn-GFP mouse embryonic stem (mES) reporter cell line; assay: ToxTracker assay, Rtkn-GFP DNA damage reporter; type: cell-based
Description: as §1, §2

[3] = tested on: biomarkers Bscl2-GFP and Rtkn-GFP in mES reporter cell lines; assay: ToxTracker assay, overall genotoxicity conclusion; type: cell-based, mouse; conditions: Bscl2-GFP and Rtkn-GFP at 10, 25 and 50% cytotoxicity, absence and presence of rat S9
Description: as §1, §2

[4] = with S9 rat liver extract, at 10% cytotoxicity, 3 h exposure, 24 h recovery
[5] = with S9 rat liver extract, at 25% cytotoxicity, 3 h exposure, 24 h recovery
[6] = with S9 rat liver extract, at 50% cytotoxicity, 3 h exposure, 24 h recovery
[7] = without S9 rat liver extract, at 10% cytotoxicity, 24 h exposure
[8] = without S9 rat liver extract, at 25% cytotoxicity, 24 h exposure
[9] = without S9 rat liver extract, at 50% cytotoxicity, 24 h exposure

C=CC(=O)OCCOC(=O)NCCCCCCn1c(=O)n(CCCCCCNC(=O)OCCOC(=O)C=C)c(=O)n(CCCCCCNC(=O)OC(C)CN2CC2C)c1=O (stereo not shown) [Compound 1]
Bscl 2 GFP reporter induction level [1, 4]: 1.2 fold | Bscl 2 GFP reporter induction level [1, 5]: 1.2 fold | Bscl 2 GFP reporter induction level [1, 6]: 1.2 fold | Bscl 2 GFP reporter induction level [1, 7]: 1.0 fold | Bscl 2 GFP reporter induction level [1, 8]: 1.2 fold | Bscl 2 GFP reporter induction level [1, 9]: 1.3 fold | Rtkn GFP reporter induction level [2, 4]: 1.0 fold | Rtkn GFP reporter induction level [2, 5]: 1.0 fold | Rtkn GFP reporter induction level [2, 6]: 1.0 fold | Rtkn GFP reporter induction level [2, 7]: 1.0 fold | Rtkn GFP reporter induction level [2, 8]: 1.0 fold | Rtkn GFP reporter induction level [2, 9]: 1.0 fold | Genotoxicity conclusion (ToxTracker) [3]: non-genotoxic
